Source: US10894785B2, “Piperidine derivatives for use in the treatment of pancreatic cancer” (CENTRE HOSPITALIER UNIVERSITAIRE VAUDOIS CHUV, priority 2016, dated 2021)

What was measured:
[1] = tested on: pancreatic ductal adenocarcinoma (Panc-1); test: Anti-tumor activity on Panc-1: cell viability by sulforhodamine or MTT assay; format: cell-based; conditions: Homo sapiens, Panc-1 cells, 96 hours treatment, 0.001-1000 nM
Protocol: The compounds according to the present invention were evaluated for their anti-tumor activities on pancreatic ductal adenocarcinoma (Panc-1). To this end, 0.5×10^6 human malignant cells were treated with various concentrations (0.001-1000 nM) for 96 hours of FK866 or the compounds according to the present invention. Subsequently cell viability was determined using either sulforhodamine assays as described in Caffa I, et al. (Oncotarget. 2015 May 20; 6(14):11820-32) or MTT assays. Sulforhodamine B is a dye able that binds to cellular proteins. […] For MTT assays, human malignant cells were plated in triplicate on 96-well plates and treated as mentioned above. After 96 hours of incubation, 15 μL of dye solution was added to each well and cells were incubated for an additional 4 hours. Stop solution (100 μL/well) was added for 1 hour and the absorbance was read at 570 nm on a spectrophotometer. To confirm whether the cytotoxicity exerted by these compounds involves programmed cell death, drug-induced cell death was evaluated using annexin V and 7AAD double staining as described by the manufacturer for assessing apoptosis or autophagic-cell death using a Beckman Coulter Cytomics Gallios flow cytometer. Dead cells were identified as annexinV+ and/or 7AAD+. GraphPad Prism version 7.00 (GraphPad Software, San Diego, Calif.) was used for IC50 calculation.

[2] = Pharmacokinetics after intraperitoneal administration in female SCID mice (plasma, LC-MS/MS, non compartmental analysis); format: in vivo; conditions: 20 mg/kg IP; for CL: CL calculated as dose/AUC; for Percentage of extrapolated AUC from T6 h to infinity / T1/2α / T1/2β / half-lives in the second phase (6 h→24 h) compared with FK866 / Cmax / Tmax / AUC(0-inf) / AUC(0-t): plasma; for Percentage of extrapolated AUC from T6 h to infinity: relative to AUC0-inf; for T1/2α: t½α (0 -> 6 h); for T1/2β: t½β (6 -> 24 h); for half-lives in the second phase (6 h→24 h) compared with FK866: versus FK866; for Cmax / Tmax / AUC(0-inf) / AUC(0-t): mouse; for AUC(0-inf): log-trapezoidal rule, extrapolated to infinity; for AUC(0-t): read-out: AUC0-8 h
Protocol: The pharmacokinetics parameters of FK866, FE1199, VAL22-2 and MPM07 were determined following intraperitoneal administration (IP) in female SCID mice.
• SCID (Severe Combined ImmunoDeficiency) mice female total 144 • 25 mM in DMSO (dimethylsulfoxyde) of each test drug • Saline solution (0.9%)
Test drugs were dissolved in saline solution at 20 mg/ml. All dosing solutions were controlled by HPLC (High-Performance Liquid Chromatography) analysis. Mouse weight is estimated around 20 g.
Three mice per time point were used in each group.
Blood samples were collected on citrate at 10 min, 30 min, 1 h, 2 h, 4 h, 6 h, 8 h and 24 hours after drug administration. Following centrifugation, resulting plasma was stored at […] pending bioanalysis. Samples were analyzed by LC-MS/MS (Liquid chromatography tandem-mass spectrometry); the lower limit of quantification achieved was between 3 and 12 nM depending on drug. Non compartmental pharmacokinetic analysis was performed on plasma concentration data.

| SMILES | IC50 [1] | CL [2] | Percentage of extrapolated AUC from T6 h to infinity [2] | T1/2α [2] | T1/2β [2] | half-lives in the second phase (6 h→24 h) compared with FK866 [2] | Cmax [2] | Tmax [2] | AUC(0-inf) [2] | AUC(0-t) [2] |
| --- | --- | --- | --- | --- | --- | --- | --- | --- | --- | --- |
| O=C(/C=C/c1cccnc1)NC/C=C/CC1CCN(C(=O)c2ccco2)CC1 [FEI-83, (E)-N-((E)-4-(1-(Furan-2-carbonyl)piperidin-4-yl)but-2-en-1-yl)-3-(pyridin-3-yl)acrylamide] | 15 nM |  |  |  |  |  |  |  |  |  |
| O=C(/C=C/c1cccnc1)NCCCCC1CCN(C(=O)c2ccccc2)CC1 [FK866, (E)-N-[4-(1-benzoylpiperidin-4-yl)butyl]-3-(pyridin-3-yl)acrylamide, reference compound] | 18.4 nM | 9.6 mL/h | 1.2% | 27.6 min | 229 min |  | 28100 ng/mL | 10 min | 20800 ng·h/mL | 20700 ng·h/mL |
| N#C/N=C(\NC/C=C/CCC1CCN(C(=O)c2ccccc2)CC1)Nc1ccncc1 [FEI-198, (E)-1-((E)-5-(1-Benzoylpiperidin-4-yl)pent-2-en-1-yl)-2-cyano-3-(pyridin-4-yl)guanidine] | 5 nM |  |  |  |  |  |  |  |  |  |

Now from value to compound:

| IC50 [1] | CL [2] | Percentage of extrapolated AUC from T6 h to infinity [2] | T1/2α [2] | T1/2β [2] | half-lives in the second phase (6 h→24 h) compared with FK866 [2] | Cmax [2] | Tmax [2] | AUC(0-inf) [2] | AUC(0-t) [2] | SMILES |
| --- | --- | --- | --- | --- | --- | --- | --- | --- | --- | --- |
| 1.5 nM | 38.5 mL/h | 2.0% | 21.6 min | 1535 min | improved and longer half-lives | 13200 ng/mL | 10 min | 5200 ng·h/mL | 5110 ng·h/mL | O=C(/C=C/c1cccnc1F)NCCCCC1CCN(C(=O)c2cccs2)CC1 [MPM-07] |
| 2.6 nM | 38.3 mL/h | 0.5% | 18.6 min | 606.6 min | improved and longer half-lives | 12100 ng/mL | 10 min | 5230 ng·h/mL | 5200 ng·h/mL | N#C/N=C(\NC/C=C/CCC1CCN(C(=O)c2ccco2)CC1)Nc1ccncc1 [FEI-199, (E)-2-Cyano-1-((E)-5-(1-(furan-2-carbonyl)piperidin-4-yl)pent-2-en-1-yl)-3-(pyridin-4-yl)guanidine] |
